From patent US12655116B2, “Substituted isophthalic acid diamides” (Bayer Aktiengesellschaft, priority 2020, dated 2026)

Assays:
[1] = test system: ABUTH; assay: Pre-emergence herbicidal action against ABUTH; assay type: in vivo, Abutilon theophrasti; conditions: for Pre-emergence action against ABUTH (herbicidal activity): 80 g/ha, scored visually after 3 weeks vs untreated controls (100% = plants have died, 0% = like control plants)
Excerpt: (§1) Seeds of monocotyledonous and dicotyledonous weed plants and crop plants are laid out in sandy loam soil in wood-fiber pots and covered with soil. The compounds of the invention, formulated in the form of wettable powders (WP) or as emulsion concentrates (EC), are then applied to the surface of the covering soil in the form of an aqueous suspension or emulsion at a water application rate equivalent to 600 to 800 l/ha, with addition of 0.2% wetting agent. After the treatment, the pots are placed in a greenhouse and kept under good growth conditions for the trial plants. The damage to the test plants is scored visually after a test period of 3 weeks by comparison with untreated controls (herbicidal activity in percent (%): 100% activity=the plants have died, 0% activity=like control plants). […] The tables below illustrate, in an illustrative manner, the post-emergence herbicidal action of the compounds of the invention, the herbicidal activity being stated in percent.

[2] = test system: VERPE; assay: Pre-emergence herbicidal action against VERPE; assay type: in vivo, Veronica persica
Excerpt: as §1

[3] = test system: ABUTH; assay: Post-emergence herbicidal action against ABUTH; assay type: in vivo, Abutilon theophrasti; conditions: visual assessment about 3 weeks after treatment vs untreated controls
Procedure: (§2) Seeds of monocotyledonous and dicotyledonous weed and crop plants are laid out in sandy loam soil in wood-fiber pots, covered with soil and cultivated in a greenhouse under good growth conditions. 2 to 3 weeks after sowing, the test plants are treated at the one-leaf stage. The compounds of the invention, formulated in the form of wettable powders (WP) or as emulsion concentrates (EC), are then sprayed onto the green parts of the plants in the form of an aqueous suspension or emulsion at a water application rate equivalent to 600 to 800 l/ha, with addition of 0.2% wetting agent. After the test plants have been left to stand in the greenhouse under optimal growth conditions for about 3 weeks, the action of the preparations is assessed visually in comparison to untreated controls (herbicidal action in percent (%): 100% activity=the plants have died, 0% activity=like control plants). […] The tables below illustrate, in an illustrative manner, the post-emergence herbicidal action of the compounds of the invention, the herbicidal activity being stated in percent.

[4] = test system: MATIN; assay: Pre-emergence herbicidal action against MATIN; assay type: in vivo, Matricaria inodora
Excerpt: as §1

[5] = test system: AMARE; assay: Pre-emergence herbicidal action against AMARE; assay type: in vivo, Amaranthus retroflexus
Excerpt: as §1

[6] = test system: PHBPU; assay: Post-emergence herbicidal action against PHBPU; assay type: in vivo, Pharbitis purpurea; conditions: dosage 20 g/ha
Procedure: as §2

[7] = test system: VIOTR; assay: Pre-emergence herbicidal action against VIOTR; assay type: in vivo, Viola tricolor; conditions: dosage 80 g/ha
Excerpt: as §1

[8] = test system: AMARE; assay: Post-emergence herbicidal action against AMARE; assay type: in vivo, Amaranthus retroflexus; conditions: 20 g/ha, visual assessment about 3 weeks after treatment, 100% = plants have died, 0% = like control plants
Procedure: as §2

[9] = test system: ECHCG; assay: Pre-emergence herbicidal action against ECHCG; assay type: in vivo, Echinochloa crus-galli; conditions: 80 g/ha
Excerpt: as §1

[10] = test system: ECHCG; assay: Post-emergence herbicidal action against ECHCG; assay type: in vivo, Echinochloa crus-galli
Procedure: as §2

[11] = test system: SETVI; assay: Pre-emergence herbicidal action against SETVI; assay type: in vivo, Setaria viridis; conditions: dosage 80 g/ha
Excerpt: as §1

[12] = test system: DIGSA; assay: Post-emergence herbicidal action against DIGSA; assay type: in vivo, Digitaria sanguinalis; conditions: for Post-emergence action against DIGSA: 20 g/ha; for Post-emergence action against DIGSA in %: 5 g/ha
Procedure: as §2

[13] = test system: DIGSA; assay: Pre-emergence herbicidal action against DIGSA; assay type: in vivo, Digitaria sanguinalis
Excerpt: as §1

[14] = test system: SETVI; assay: Post-emergence herbicidal action against SETVI; assay type: in vivo, Setaria viridis
Procedure: as §2

[15] = test system: VIOTR; assay: Post-emergence herbicidal action against VIOTR; assay type: in vivo, Viola tricolor; conditions: 20 g/ha
Procedure: as §2

[16] = test system: ALOMY; assay: Pre-emergence herbicidal action against ALOMY; assay type: in vivo, Alopecurus myosuroides; conditions: 80 g/ha, pre-emergence, scored visually after 3 weeks vs untreated controls (100% = plants have died, 0% = like control plants)
Excerpt: as §1

[17] = test system: AVEFA; assay: Pre-emergence herbicidal action against AVEFA; assay type: in vivo, Avena fatua; conditions: 80 g/ha, pre-emergence
Excerpt: as §1

[18] = 80 g/ha, scored visually after 3 weeks vs untreated controls (100% = plants have died, 0% = like control plants)
[19] = 20 g/ha, scored visually after 3 weeks vs untreated controls, 100% = plants have died, 0% = like control plants

Structure (SMILES)	Pre-emergence action against ABUTH (herbicidal activity) [1] [%]	Pre-emergence action against VERPE in % ([2]; dosage 80 g/ha) [%]	Post-emergence action against ABUTH in % ([3]; dosage 20 g/ha) [%]	Pre-emergence action against MATIN in % ([4]; dosage 20 g/ha) [%]	Pre-emergence action against MATIN in % ([4]; dosage 80 g/ha) [%]	Pre-emergence action against AMARE in % [5, 18] [%]	Pre-emergence action against VIOTR in % [7] [%]	Post-emergence action at 20 g/ha against AMARE in % [8] [%]	Pre-emergence action against AMARE in % [5, 19] [%]	Pre-emergence action against ECHCG in % [9] [%]	Post-emergence action against ECHCG in % ([10]; dosage 20 g/ha) [%]	Pre-emergence action against SETVI in % [11] [%]	Post-emergence action against DIGSA [12] [%]	Pre-emergence action against DIGSA in % ([13]; dosage 20 g/ha) [%]	Pre-emergence action against DIGSA in % ([13]; dosage 80 g/ha) [%]	Post-emergence action against SETVI in % ([14]; dosage 20 g/ha) [%]	Post-emergence action against DIGSA in % [12] [%]	other results
CCn1nnnc1NC(=O)c1ccc(C(F)(F)F)c(C(=O)Nc2ccccc2)c1Cl [Example 2-143]	100	80	80	90	100	100	80	–	–	–	–	–	–	–	–	–	–	Post-emergence action against PHBPU in % [6]: 80%
Cc1nnc(NC(=O)c2ccc(C(F)F)c(C(=O)NC3CCC3)c2Cl)o1 [Example 6-261]	100	–	80	90	100	100	–	90	100	100	90	100	90	80	100	–	–	Pre-emergence action against ABUTH (herbicidal activity in percent) ([1]; dosage 20 g/ha, scored visually after 3 weeks vs untreated controls, 100% = plants have died, 0% = like control plants): 80%
CCc1c(C(=O)Nc2nnc(C)o2)ccc(C(F)(F)F)c1C(=O)NC [Example 6-210]	100	–	90	80	90	100	90	100	–	90	80	100	90	100	100	100	90	Post-emergence action against SETVI in % ([14]; dosage 5 g/ha): 90%; Post-emergence action against VIOTR in % [15]: 80%
CCn1nnnc1NC(=O)c1ccc(C(F)F)c(C(=O)NCC#N)c1Cl [Example 2-158]	100	90	–	–	90	100	100	–	–	–	–	–	–	–	–	90	–	Pre-emergence action against VERPE in % ([2]; dosage 20 g/ha): 80%; Post-emergence action against SETVI in % ([14]; dosage 5 g/ha): 90%
CNC(=O)c1c(C(F)(F)F)ccc(C(=O)Nc2nnc(C)o2)c1OC [Example 6-43]	100	–	–	–	80	100	–	–	–	100	–	90	100	–	100	90	90	–
COc1c(C(=O)Nc2nnc(C)o2)ccc(C(F)(F)F)c1C(=O)NC1CC1 [Example 6-45]	90	–	90	–	90	100	90	80	80	80	90	100	90	90	100	100	90	Post-emergence action against ABUTH in % ([3]; dosage 5 g/ha): 80%
Cc1nnc(NC(=O)c2ccc(C(F)F)c(C(=O)NCC(F)(F)F)c2Br)o1 [Example 6-168]	100	–	–	80	90	100	–	100	90	90	80	90	–	–	–	–	–	Post-emergence action against ECHCG in % ([10]; dosage 5 g/ha): 80%; Pre-emergence action against ALOMY (herbicidal activity) [16]: 80%; Pre-emergence action against AVEFA in % [17]: 80%
CCNC(=O)c1c(C(F)(F)F)ccc(C(=O)Nc2nnc(C)o2)c1OC [Example 6-44]	–	–	80	–	80	100	–	90	80	100	90	90	90	–	–	80	80	–
Cc1nnc(NC(=O)c2ccc(C(F)F)c(C(=O)NCC3CC3)c2C)o1 [Example 6-34]	100	–	80	–	90	100	–	100	100	100	90	–	80	100	100	90	–	Post-emergence action against ABUTH in % ([3]; dosage 5 g/ha): 80%; Post-emergence action against ECHCG in % ([10]; dosage 5 g/ha): 80%; Pre-emergence action against ALOMY (herbicidal activity) [16]: 80%; Post-emergence action against PHBPU in % [6]: 80%
Cc1c(C(=O)Nc2nnnn2C)ccc(C(F)(F)F)c1C(=O)NCC#N [Example 1-36]	100	90	–	–	–	100	–	100	100	–	–	–	–	–	–	–	–	–
Cn1nnnc1NC(=O)c1ccc(C(F)F)c(C(=O)NCC#N)c1Cl [Example 1-158]	–	80	80	–	–	100	90	90	100	–	–	–	–	–	–	–	–	Pre-emergence action against VERPE in % ([2]; dosage 20 g/ha): 80%
CCNC(=O)c1c(C(F)F)ccc(C(=O)Nc2nnc(C)o2)c1SC [Example 6-75]	–	–	–	–	–	–	–	–	–	–	–	–	90	–	80	–	–	–
COCCNC(=O)c1c(C(F)F)ccc(C(=O)Nc2nnc(C)o2)c1Cl [Example 6-262]	100	–	90	–	100	100	90	90	90	90	80	100	90	100	100	80	–	Post-emergence action against ABUTH in % ([3]; dosage 5 g/ha): 80%
